Results reported in patent publication US8952204B2, “Sulfonium salt, method for producing the same, and photoacid generator” (DSP Gokyo Food & Chemical Co., Ltd., priority 2012, dated 2015).

Assays:
[1] = Measurement of ultraviolet-visible absorption spectrum (molecular extinction coefficient at 365 nm); assay type: physicochemical; settings: 1×10^−4 mol/L acetonitrile solution; 50 to 2000 evaluated as desirable
Method: (Measurement of Ultraviolet-Visible Absorption Spectrum)
A 1×10^−4 mol/L acetonitrile solution of each test compound was prepared, and the molecular extinction coefficient at 365 nm in the ultraviolet-visible absorption spectrum was measured using an ultraviolet-visible spectrophotometer (UV-2400PC, manufactured by SHIMADZU CORPORATION). […] Considering that light should be transmitted to a deep portion in a thick film, compounds with a molecular extinction coefficient at 365 nm (i-line) of 50 to 2000 were evaluated as a compound having desirable properties.

[2] = Solubility in PGMEA (amount of PGMEA necessary for dissolving 100 mg test compound); assay type: physicochemical; settings: 20±5° C., after 30 minutes, 16 mL or less evaluated as desirable
Method: To the sulfonium salt compound to be measured (test compound; 100 mg each) was added PGMEA, and a strong shaking for 30 seconds was repeated at 20±5° C. every 5 minutes. In this way, the amount of PGMEA necessary for dissolving the test compound after 30 minutes was measured. Here, “dissolving” means to reach the state where no insoluble matter can be observed by visual inspection, specifically, means that the resultant solution is clear, or a mixture in an arbitrary ratio becomes transparent.
In Table 1 below, the compounds that require PGMEA in an amount of 16 mL or less were evaluated as having desirable properties as a current target compound.

Compound	Molecular Extinction Coefficient (365 nm) [1]	PGMEA (mL): amount of PGMEA necessary for dissolving test compound [2]
CC1(C)[C@@H]2CC[C@@]1(CS(=O)(=O)[O-])C(=O)C2.c1ccc([S+](c2ccccc2)c2ccccc2)cc1 [Comparative Example Compound 1, triphenylsulfonium (1S,4R)-7,7-dimethyl-2-oxobicyclo[2.2.1]heptane-1-yl methanesulfonate]	0	>160 mL
CC1(C)[C@@H]2CC[C@@]1(CS(=O)(=O)[O-])C(=O)C2.CCCCOc1ccc2ccc(OCCCC)c([S+](CCCC)CCCC)c2c1 [Example Compound 1, 1-(2,7-di-n-butoxynaphthyl)di-n-butyl sulfonium (1S,4R)-7,7-dimethyl-2-oxobicyclo[2.2.1]heptane-1-yl methanesulfonate]	640	11 mL
